Measurements reported in patent US20110313004A1, “DEUTERATED PYRIDINONES” (CONCERT PHARMACEUTICALS, INC., priority 2008, published 2011).

Test: Storage stability of the isolated compound at about −20° C.
Format: physicochemical
Conditions: storage for approximately 2 weeks at about −20° C.
Description: Compound 139 was synthesized in the same manner as Compound 151 with the exception that 4-fluoro-2,3,5,6-d4-aniline (98% atom % D, CDN Isotopes) was used in place of D p-toluidine-d9 in step 1. ^1H NMR (CDCl3): δ 7.44 (dd, J=2.5, 9.6, 1H), 7.31 (d, J=2.5, 1H), 6.67 (d, J=9.3, 1H). MS (M+H): 226.1.
Compound 161 was synthesized in the same manner as Compound 101 (Example 1, Scheme 6, steps 1-3), except that 4-chloro-2,3,5,6-d4-aniline (98% atom % D, CDN Isotopes) was used in place of aniline in step 1. MS (M+H): 242.1.
A solution of (ethyl carbonic) 1-(4-(methoxy-d3)phenyl-d4)-6-oxo-1,6-dihydropyridine-3-carboxylic anhydride 27 (464 mg, approximately. 1.43 mmol) in THF (14.8 mL) was cooled to 10° C. and NaBD4 (98 atom % D, Cambridge Isotopes Laboratories) (295 mg, 7.01 mmol) was added. To the resulting slurry was added MeOD (1.42 mL) via syringe pump at a rate of 0.015 mL/min. Upon completion, the reaction was diluted with MeOD and concentrated nearly to dryness on a rotary evaporator. This process was repeated twice. The resulting solid was suspended in CH2Cl2, silica gel was added, the slurry concentrated to dryness in vacuo, and the resulting solid was added to the top of a silica gel column. Purification via column chromatography on an ISCO instrument (0 to 10% MeOH in CH2Cl2) provided impure final product. A further purification by ISCO (50 to 100% EtOAc in hexanes) followed by a preparatory HPLC purification afforded 116 mg of the final product 156 in approximately 85% purity. ^1H NMR (CDCl3): δ 7.43 (dd, J=2.7, 9.5, 1H), 7.31 (dd, J=0.6, 2.5, 1H), 6.66 (dd, J=0.6, 9.5, 1H). MS (M+H): 241.1.

condition of compound after storage	Structure (SMILES)
decomposed	[2H]c1c([2H])c(-n2cc(C([2H])([2H])O)ccc2=O)c([2H])c([2H])c1F [Compound 139, 1-(4-Fluorophenyl-d4)-5-(hydroxy(methyl-d2))pyridin-2(1H)-one]
decomposed	[2H]c1c([2H])c(-n2cc(C([2H])([2H])O)ccc2=O)c([2H])c([2H])c1OC([2H])([2H])[2H] [Compound 156, 5-(Hydroxyl(methyl-d2))-1-(4-(methoxy-d3)phenyl-d4)pyridin-2(1H)-one]
decomposed	[2H]c1c([2H])c(-n2cc(C([2H])([2H])O)ccc2=O)c([2H])c([2H])c1Cl [Compound 161, 1-(4-Chlorophenyl-d4)-5-(hydroxy(methyl-d2))-pyridin-2(1H)-one]
